In patent US20050282755A1, “Compositions having antimicrobial activity and uses thereof” (priority 2004, published 2005):
In brackets after ≈: the same amount, converted by molar mass. Read-outs that look alike come from different tables or passages of the source. Non-standard residues stand in square brackets, D forms with d. Residues, ends and D or L forms follow the SMILES beside them. *: point of attachment. Lauroyl = CCCCCCCCCCCC(=O)*

What was measured:
[1] = test system: Staphylococcus aureus ATCC 29213; test: MIC, NCCLS M7-A6 broth microdilution, cation-adjusted Mueller Hinton broth (Table 9, no superscript); assay type: cell-based; details: ATCC 29213
Procedure, shortened: (§1)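 Broth microdilution in cation-adjusted Mueller Hinton broth with log-phase inoculum at 5×10^5 to 1×10^6 CFU/mL, incubated overnight at 37° C. MIC was the lowest peptide concentration showing no visible turbidity versus the no-peptide control.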

[2] = test system: Propionibacterium acnes ATCC 6919; test: MIC, agar dilution method NCCLS M11-A6, Brucella agar, anaerobic (Table 9, superscript c); assay type: cell-based; details: letter c: agar dilution NCCLS M11-A6, Brucella agar, anaerobic
Procedure, shortened: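 Agar dilution per NCCLS M11-A6 on Brucella agar; final inoculum 1.5×10^8 CFU/milliliter applied to plates, incubated 48-96 hours at 37° C. under anaerobic (GasPak) conditions. MIC = lowest peptide concentration with no colony growth.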

[3] = test system: Pseudomonas aeruginosa ATCC 27853; details: ATCC 27853, pH 7.4
[4] = test system: Candida albicans ATCC 18804; test: MIC in yeasts, NCCLS M27-A2 broth microdilution, RPMI 1640 (Table 9, letter e); assay type: cell-based; details: ATCC 18804
Procedure, shortened: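 Broth microdilution per NCCLS M27-A2 in RPMI 1640 with glutamine and phenol red, final inoculum 0.5×10^3–2.5×10^3 CFU/milliliter. Incubated 24 to 48 hours at 37° C; MIC is the lowest peptide concentration with no visible growth.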

[5] = test system: HeLa cells; details: 16 h
[6] = test system: Jurkat cells; assay type: cell-based; details: 16 h
Procedure: Toxicity of peptide compositions for mammalian cells was determined by using a metabolic viability assay. For this assay 4×10^5 HeLa cells were seeded per well into a microwell plate (50 microliters volume). Jurkat cells also were utilized in separate experiments. The cells were incubated for 16 hours at 37° C. under mammalian cell culture conditions. Two fold serial dilutions for each peptide were prepared and added to the cells (final volume 100 microliters) and incubated for 16 hours at 37° C. For each dilution series control wells containing cells without peptide were included. The metabolic activity and viability of the cells were determined by using a commercially available assay (CellTiter96 assay, Promega Corp.). According to manufacturer's protocol 20 microliters of CellTiter reagent was added to each well and incubated at 37° C. for 1-4 hours. The CellTiter assay is a commercial version of the MTT assay, which measures the conversion of a tetrazolium […] into a colored formazan salt in metabolically active cells. The formation of the formazan product can be measured at 470 nm and is generally accepted as a measure of cellular viability. The cells were incubated at 37° C. and monitored for color development. The conversion of CellTiter reagent was measured at 470 nm using a Versamax plate reader (Molecular Devices). The viability of peptide treated cells is expressed as IC50 (i.e., concentration that leads to a 50% reduction of viability relative to the untreated control). Table 7A reports IC50 values for HeLa cells cultured in OptiMEM or 10% FBS when contacted with peptide compositions from Table 3, and Table 7B reports IC50 values for HeLa cells or Jurkat cells contacted with peptide compositions from Table 3.

[7] = test system: Escherichia coli ATCC 25922; test: MIC, NCCLS M7-A6 broth microdilution (Table 9, no superscript); assay type: cell-based; details: ATCC 25922
Procedure, shortened: as §1

[8] = test system: Staphylococcus epidermidis ATCC 12228; test: as above; assay type: cell-based; details: ATCC 12228
Procedure, shortened: as §1

[9] = test system: Salmonella dublin (Lane); test: as above; assay type: cell-based
Procedure, shortened: as §1

[10] = test system: IL-12 release; test: Anti-inflammation assay: IL-12 release in PBMCs stimulated by P. acnes (IL-12p70 ELISA); assay type: cell-based, human; details: PBMCs stimulated by P. acnes, over night; read-out: IC50 value, reduction of IL-12 release
Procedure: An assay that detected reductions in IL-12 released in whole human blood cells (PBMCs) was utilized to detect reductions in inflammation elicited by peptide compositions described herein. The assay utilized the following materials and reagents: whole human blood cells; P. acnes; peptides 55, 67 and 93 from Table 3; IL-12p70 ELISA kit (eBiosciences); RPMI 1640 growth medium; PBS; and a 96-well microtiter plate. PBMCs were prepared from whole human blood cells according to standard procedures and cells were resuspended in RPMI 1640 and 10% FCS. Cells were seeded at 250,000 cells per well in a 96-well microtiter plate and incubated for 90 minutes. […] Controls included untreated cells, P. acnes alone or a peptide alone. The cells were incubated over night at 37° C., and cell supernatants were collected and stored at −80° C. for use in an IL-12 ELISA assay (eBiosciences). A 1:1 dilution of supernatant was utilized to perform the IL-12 ELISA following the protocol provided by the manufacturer.

[11] = test system: Pseudomonas aeruginosa ATCC 27853; test: MIC, NCCLS M7-A6 broth microdilution (Table 9, no superscript); assay type: cell-based; details: ATCC 27853
Procedure, shortened: as §1

[12] = test system: Propionibacterium acnes ATCC 6919; assay type: cell-based
Procedure, shortened: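 MIC by non-standard broth microdilution in reinforced Clostridial broth, log-phase P. acnes inoculum at 5×10^5 to 1×10^6 CFU/mL. Plates were held anaerobically 48–72 h at 37° C; MIC was the lowest peptide concentration with no visible turbidity relative to the no-peptide control.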

Compound: CCCCCCCCCCCC(=O)N[C@H](CCCNC(=N)N)C(=O)N[C@H](CO)C(=O)N[C@H](CCCNC(=N)N)C(=O)N[C@H](Cc1c[nH]c2ccccc12)C(=O)N[C@H](CCCNC(=N)N)C(=O)N[C@H](CC(=O)O)C(=O)N[C@@H](C(=O)N[C@H](C)C(=O)N[C@H](CCCNC(=N)N)C(=O)N[C@H](CC(N)=O)C(=O)N[C@H](Cc1ccccc1)C(=O)N[C@H](CCSC)C(=O)N[C@H](CCCNC(=N)N)C(N)=O)C(C)C [Peptide 90, Lauryl-rsrwrdvarnfmr-NH2] (Lauroyl-[dR][dS][dR][dW][dR][dD][dV][dA][dR][dN][dF][dM][dR]-NH2)
- MIC S. aureus [1]: 4 µg/mL (≈ 2.07 µM)
- MIC P. acnes [2]: 8c ug/mL
- MIC P. aeruginosa [3]: 3b ug/mL
- MIC C. albicans [4]: 16e ug/mL
- IC50 [5]: 5 to 15 µM
- IC50 [6]: 5 to 15 µM
- MIC E. coli [7]: 4 µg/mL (≈ 2.07 µM)
- MIC S. epidermidis [8]: 4 µg/mL (≈ 2.07 µM)
- MIC S. dublin [9]: 4 µg/mL (≈ 2.07 µM)

Compound: CCCCCCCCCCCC(=O)N[C@@H](C(=O)N[C@H](CCCNC(=N)N)C(=O)N[C@@H](C(=O)N[C@H](CO)C(=O)N[C@H](CCCNC(=N)N)C(=O)N[C@@H](C(=O)NCC(=O)N[C@H](CCCNC(=N)N)C(=O)N[C@H](CO)C(=O)N[C@H](CCCNC(=N)N)C(=O)N[C@H](Cc1c[nH]c2ccccc12)C(=O)N[C@H](CCCNC(=N)N)C(=O)N[C@H](CC(=O)O)C(=O)N[C@H](Cc1c[nH]c2ccccc12)C(=O)N[C@H](CO)C(=O)N[C@H](CCCNC(=N)N)C(=O)N[C@H](CC(N)=O)C(=O)N[C@H](Cc1ccccc1)C(=O)N[C@H](CCSC)C(=O)N[C@H](CCCNC(=N)N)C(N)=O)[C@H](C)O)C(C)C)[C@H](C)O [Peptide 76, Lauryl-trvsrtgrsrwrdwsrnfmr-NH2] (Lauroyl-[dT][dR][dV][dS][dR][dT]G[dR][dS][dR][dW][dR][dD][dW][dS][dR][dN][dF][dM][dR]-NH2)
- MIC S. aureus [1]: 2 µg/mL (≈ 0.716 µM)
- MIC P. acnes [2]: 64c ug/mL
- IC50 [10]: 1.12 µM
- MIC C. albicans [4]: 16e ug/mL
- IC50 [5]: 5.49 µM
- IC50 [6]: 3.3 µM
- MIC E. coli [7]: 4 µg/mL (≈ 1.43 µM)
- MIC P. aeruginosa [11]: 32 µg/mL (≈ 11.5 µM)
- MIC S. epidermidis [8]: 1 µg/mL (≈ 0.358 µM)
- MIC S. dublin [9]: 16 µg/mL (≈ 5.73 µM)

Compound: CSCC[C@@H](NC(=O)[C@@H](Cc1ccccc1)NC(=O)[C@@H](CC(N)=O)NC(=O)[C@@H](CCCNC(=N)N)NC(=O)[C@@H](CO)NC(=O)[C@@H](Cc1c[nH]c2ccccc12)NC(=O)[C@@H](CC(=O)O)NC(=O)[C@@H](CCCNC(=N)N)NC(=O)[C@@H](Cc1c[nH]c2ccccc12)NC(=O)[C@@H](CCCNC(=N)N)NC(=O)[C@@H](CO)NC(=O)[C@@H](CCCNC(=N)N)NC(=O)CNC(=O)[C@H](NC(=O)[C@@H](CCCNC(=N)N)NC(=O)[C@@H](CO)NC(=O)[C@H](NC(=O)[C@@H](CCCNC(=N)N)NC(=O)[C@H](NC(C)=O)[C@H](C)O)C(C)C)[C@H](C)O)C(=O)N[C@H](CCCNC(=N)N)C(N)=O [Peptide 33, Ac-trvsrtgrsrwrdwsrnfmr-NH2] (Ac-[dT][dR][dV][dS][dR][dT]G[dR][dS][dR][dW][dR][dD][dW][dS][dR][dN][dF][dM][dR]-NH2)
- MIC P. acnes [12]: 12.5 µg·days/mL
- MIC S. aureus [1]: >64 µg/mL
- MIC C. albicans [4]: 16e ug/mL
- IC50 [5]: > 100 µM
- IC50 [6]: 67.5 µM
- MIC E. coli [7]: >64 µg/mL
- MIC P. aeruginosa [11]: >64 µg/mL
- MIC S. epidermidis [8]: 32 µg/mL (≈ 12.1 µM)
- MIC S. dublin [9]: 64 µg/mL (≈ 24.1 µM)

Compound: CSCC[C@H](NC(=O)[C@H](Cc1ccccc1)NC(=O)[C@H](CC(N)=O)NC(=O)[C@H](CCCNC(=N)N)NC(=O)[C@H](CO)NC(=O)[C@H](Cc1c[nH]c2ccccc12)NC(=O)[C@H](CC(=O)O)NC(=O)[C@H](CCCNC(=N)N)NC(=O)[C@H](Cc1c[nH]c2ccccc12)NC(=O)[C@H](CCCNC(=N)N)NC(=O)[C@H](CO)NC(=O)[C@H](CCCNC(=N)N)NC(=O)CNC(=O)[C@@H](NC(=O)[C@H](CCCNC(=N)N)NC(=O)[C@H](CO)NC(=O)[C@@H](NC(=O)[C@H](CCCNC(=N)N)NC(=O)[C@@H](NC(C)=O)[C@@H](C)O)C(C)C)[C@@H](C)O)C(=O)N[C@@H](CCCNC(=N)N)C(=O)N[C@@H](C)C(=O)N[C@@H](C)C(N)=O [Peptide 1]
- IC50 [5]: > 100 µM
- IC50 [6]: > 100 µM
